Calls of active or inactive are those of the source.
Experiments:
INS1 = assay: INS-1E survival protection against cytokine death – cell-based, luminescence, retest, dose response (AID 449756); assay type: functional; settings: Rattus norvegicus;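 also: cell death triggered by IL-1 beta plus TNF-alpha plus IFN-gamma mixture; protective hits raise ATP signal compared with cytokine alone wells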
[1] = target: Heat shock protein HSP 90-alpha (Homo sapiens, UniProt P07900); assay type: functional, organism-based
[2] = HGIII-sPLA2 enzyme inhibition potency – biochemical, QFRET, IC50, dose response (AID 743457);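 also: green fluorescence rise as the enzyme cleaves BODIPY PC-A2 in liposomes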
[3] = Luminescence Cell-Based Dose Retest to Confirm Inhibitors of Cancer Stem Cells. [Related pubchem assays (depositor defined):AID2717, AID2721]; assay type: functional; settings: Homo sapiens
[4] = reduction of Shn3 3'UTR-driven luciferase in osteoblasts – cell-based, Clone20 osteoblasts, firefly luciferase, cherry-picked, dose response (AID 624132); assay type: functional;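 also: firefly luciferase luminescence from reporter carrying the Shn3 3'UTR in osteoblasts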
[5] = Shn3 3'UTR reporter signal decrease – cell-based, Clone20 osteoblasts, firefly luciferase, cherry-pick, set 2, Schnurri-3 inhibitor project, dose response (AID 720490); assay type: functional;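 also: actives lower the luminescence signal as inhibitors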
[6] = non-specific 3'UTR reporter inhibition in Clone20-Shn3RL – cell-based, Renilla luciferase, cherry-picked, counter-screen for Shn3 inhibitor project, dose response (AID 624133); assay type: functional
[7] = loss of viability in HepG2 cells – cell-based, CellTiter-Glo, cherry-picked, cytotoxicity control for Shn3 inhibitor project, dose response (AID 624134); assay type: functional
fMet-Leu-Phe receptor = fMet-Leu-Phe receptor (Homo sapiens, UniProt P21462); assay: formyl peptide receptor binders – dose response (AID 519); assay type: functional
Kallikrein-7 = Kallikrein-7 (Homo sapiens, UniProt P49862); assay: Fluorescence Intensity-based biochemical primary high throughput dose response assay to identify activators of kallikrein-7 (K7) zymogen.
Protein Wnt-3a = Protein Wnt-3a (Mus musculus, UniProt P27467); assay: SAR analysis of small molecule antagonists of Gli-SUFU in a Wnt3a luminescent reporter assay.; assay type: functional
[8] = target: Oxysterols receptor LXR-beta (Homo sapiens, UniProt P55055); assay type: functional, cell-based;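 also: Cell-based luminescence dose-response assay of agonist activity at LXR, run as a confirmatory counterscreen to a daf-12 agonist screen; HEK293 cells with Gal4-LXR fusion and GAL4-driven luciferase reporter; agonist potency from rising luciferase signal of a Gal4-LXR reporter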
cells [9] = assay: cells
HEK293 = assay: EBV LMP1 TES2 canonical NF-kB signalling blockers – cell-based, HEK293, luciferase, cherry-pick, dose response (AID 588343); assay type: functional; settings: Homo sapiens
HT-1080 = assay: HT1080 cell viability loss – fluorescence readout (AID 620); assay type: functional, cell-based; settings: Homo sapiens
[10] = target: Luciferin 4-monooxygenase (Photinus pyralis, UniProt P08659); assay: Counter Screen for Luciferase-based Assay Positives. [Related pubchem assays: 620, 618, 411 ]
cells [11] = assay: cells; remark: listed apart in the source
Major prion protein = Major prion protein (Homo sapiens, UniProt P04156); assay type: functional, cell-based
Streptokinase A = target: T1, Streptokinase A (Streptococcus pyogenes serotype M1, UniProt P10520); assay: viability-normalized secreted streptokinase activity reduction – plasminogen activation absorbance, OD405, dose response (AID 1914); assay type: functional, Streptococcus pyogenes M1 GAS;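 also: secreted streptokinase activity via plasminogen activation per viability signal from cell pellet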
T1 sequence (P10520 whole entry): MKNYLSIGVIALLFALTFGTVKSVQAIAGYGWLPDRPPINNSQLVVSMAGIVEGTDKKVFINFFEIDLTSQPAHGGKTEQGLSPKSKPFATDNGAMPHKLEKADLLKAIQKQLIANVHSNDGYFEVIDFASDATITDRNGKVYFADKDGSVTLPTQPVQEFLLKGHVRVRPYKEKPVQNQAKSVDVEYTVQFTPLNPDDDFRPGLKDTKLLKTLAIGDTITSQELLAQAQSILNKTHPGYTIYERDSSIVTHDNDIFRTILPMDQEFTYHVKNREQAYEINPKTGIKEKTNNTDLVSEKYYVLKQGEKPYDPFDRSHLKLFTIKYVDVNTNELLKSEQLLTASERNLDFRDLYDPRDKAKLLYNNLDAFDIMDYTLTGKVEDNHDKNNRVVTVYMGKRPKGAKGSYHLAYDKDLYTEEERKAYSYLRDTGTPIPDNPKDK

[12] = target: T2, Heat shock factor protein 1 (Mus musculus, UniProt P38532); assay: decrease of HSF1-responsive luciferase luminescence – cell-based, NIH3T3, dose retest, confirmation (AID 2382); assay type: functional;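 also: NIH3T3 fibroblasts with HSF1-driven luciferase reporter stressed by proteasome inhibitor MG132; luminescence from HSF1-driven luciferase expression after 8 hours of MG132 stress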
T2 sequence (P38532 whole entry): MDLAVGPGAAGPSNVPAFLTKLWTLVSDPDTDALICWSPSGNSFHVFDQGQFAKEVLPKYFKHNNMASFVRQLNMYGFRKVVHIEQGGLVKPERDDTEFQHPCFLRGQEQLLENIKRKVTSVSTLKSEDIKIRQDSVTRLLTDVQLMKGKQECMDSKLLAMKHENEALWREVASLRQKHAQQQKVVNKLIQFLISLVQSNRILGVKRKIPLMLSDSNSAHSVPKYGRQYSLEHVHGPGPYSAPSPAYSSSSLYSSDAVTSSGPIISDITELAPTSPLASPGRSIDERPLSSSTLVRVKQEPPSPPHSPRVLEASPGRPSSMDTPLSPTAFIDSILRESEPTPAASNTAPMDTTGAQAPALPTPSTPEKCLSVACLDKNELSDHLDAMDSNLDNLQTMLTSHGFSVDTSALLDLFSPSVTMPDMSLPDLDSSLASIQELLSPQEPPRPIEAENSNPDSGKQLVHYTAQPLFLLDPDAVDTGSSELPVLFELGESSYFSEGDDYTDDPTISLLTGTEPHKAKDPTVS

[13] = viability of uninfected HEp-2 cells – cell-based, HTS, cytotoxicity control for RSV inhibitor project, dose response (AID 2410); assay type: functional; settings: human respiratory syncytial virus
Streptococcus = assay: GAS UMAA2166 growth inhibition – luminescence, BacTiterGlo, counter-screen for streptokinase expression inhibitor project, dose response (AID 1915); assay type: functional, organism-based;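 also: potency for reduction of bacterial viability or growth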
[14] = test system: Streptococcus sp. 'group A'; assay: Streptococcus pyogenes SK(-)GAS viability under kanamycin – luminescence, BacTiterGlo, confirmation, counter-screen for streptokinase expression inhibitor project, dose response (AID 1900); assay type: functional, organism-based
Albumin = Albumin (Bos taurus, UniProt P02769); assay: Counterscreen for inhibitors of T-cell receptor (TCR)-CD3 interaction: Fluorescence-based biochemical high throughput dose response assay to identify inhibitors of T-cell receptor (TCR)-CD3 interaction using a TAMRA-labeled BSA probe.; assay type: functional
Large T antigen = Large T antigen (Simian virus 40, UniProt P03070); assay type: functional, Betapolyomavirus macacae;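 also: Confirmatory-stage PubChem screen for compounds that inhibit SV40 T antigen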
[15] = target: T3, Histone-lysine N-methyltransferase NSD2 (Homo sapiens, UniProt O96028); assay type: biochemical
T3 sequence (O96028 whole entry): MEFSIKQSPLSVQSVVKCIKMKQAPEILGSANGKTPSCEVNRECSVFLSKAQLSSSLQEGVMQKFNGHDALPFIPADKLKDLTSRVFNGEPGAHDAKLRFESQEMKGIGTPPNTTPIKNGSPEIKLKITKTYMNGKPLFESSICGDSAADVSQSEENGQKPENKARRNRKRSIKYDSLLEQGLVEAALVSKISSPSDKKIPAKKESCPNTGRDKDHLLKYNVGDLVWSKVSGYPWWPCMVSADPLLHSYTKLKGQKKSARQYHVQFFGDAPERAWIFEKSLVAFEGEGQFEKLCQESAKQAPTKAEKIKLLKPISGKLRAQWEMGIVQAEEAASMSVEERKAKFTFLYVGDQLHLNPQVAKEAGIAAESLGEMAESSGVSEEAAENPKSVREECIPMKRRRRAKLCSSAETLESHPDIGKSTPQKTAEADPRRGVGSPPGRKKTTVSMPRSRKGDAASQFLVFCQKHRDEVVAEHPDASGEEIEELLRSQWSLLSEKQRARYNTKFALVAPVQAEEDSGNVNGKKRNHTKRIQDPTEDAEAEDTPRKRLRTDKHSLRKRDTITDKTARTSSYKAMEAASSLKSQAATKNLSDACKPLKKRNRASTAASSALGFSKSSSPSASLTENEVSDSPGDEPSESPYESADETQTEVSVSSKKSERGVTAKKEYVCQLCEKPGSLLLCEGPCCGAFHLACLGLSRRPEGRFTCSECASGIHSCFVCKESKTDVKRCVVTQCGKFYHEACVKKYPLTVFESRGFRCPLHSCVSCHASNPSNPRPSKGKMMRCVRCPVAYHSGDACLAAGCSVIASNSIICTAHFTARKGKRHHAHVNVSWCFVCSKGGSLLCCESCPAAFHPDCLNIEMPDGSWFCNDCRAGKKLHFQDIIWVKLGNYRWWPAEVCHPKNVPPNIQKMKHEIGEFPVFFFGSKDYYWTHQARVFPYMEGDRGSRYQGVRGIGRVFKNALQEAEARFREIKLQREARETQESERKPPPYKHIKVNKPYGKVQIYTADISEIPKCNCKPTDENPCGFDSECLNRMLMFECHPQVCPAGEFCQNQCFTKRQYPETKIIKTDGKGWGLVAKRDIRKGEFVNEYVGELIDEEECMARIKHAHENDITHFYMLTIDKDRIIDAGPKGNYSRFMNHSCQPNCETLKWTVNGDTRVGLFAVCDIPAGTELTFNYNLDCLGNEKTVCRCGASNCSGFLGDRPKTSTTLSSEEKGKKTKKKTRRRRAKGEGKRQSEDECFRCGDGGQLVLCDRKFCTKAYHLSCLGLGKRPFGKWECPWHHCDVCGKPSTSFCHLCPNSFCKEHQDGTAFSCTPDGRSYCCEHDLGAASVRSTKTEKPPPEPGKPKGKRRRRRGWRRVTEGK

## O=C(/C=C/c1ccccc1)NC(=S)NNC(=O)c1cnccn1
INS1
  AC50: 1.39 µM (active)
[1]
  AC50: 2.87 µM (active)
[2]
  IC50: 66.8 µM (inactive)
[3]
  AC50: 8.78 µM (active)

## O=C(Nc1ccc(Cl)cc1)c1cc(S(=O)(=O)N2CCOCC2)cs1
[4]
  AC50: 4.23 µM (active)
[5]
  AC50: 4.83 µM (active)
[6]
  AC50: 14.7 µM (active)
[7]
  AC50: 46.9 µM (active)

## COc1ccccc1NC(=O)CSc1nnc(Cn2nnc(-c3ccccc3)n2)n1-c1ccccc1
fMet-Leu-Phe receptor
  Ki: > 66.7 µM (inactive)

## COC(=O)C1=CN(CC2CCCO2)C=C(C(=O)OC)C1c1ccsc1 (stereo not drawn)
Kallikrein-7
  EC50: > 69.5 µM (inactive)

## O=C(Nc1cc(N2CCCCC2)ncn1)c1ccccc1
Protein Wnt-3a
  IC50: > 21.8 µM (inactive)

## c1ccc(-c2nnc(-c3ccccn3)s2)nc1
[8]
  EC50: > 67.5 µM (inactive)
Cells [9]
  EC50: > 67.5 µM (inactive)
HEK293
  AC50: 4.63 µM (active)

## Cc1ccc2nc(-c3cc(N)cc(N)c3)oc2c1
HT-1080
  EC50: > 50 µM (not active)
[2]
  IC50: > 122 µM (inactive)
[10]
  EC50: 1.01 µM (active)

## OC(COc1ccc2ccccc2c1Br)Cn1cnc(-c2ccccc2)c1 (stereo not drawn)
Cells [11]
  IC50: > 138 µM (inactive)
Major prion protein
  IC50: 4.17 µM (active)
Streptokinase A
  EC50: 9.22 µM (active)
[12]
  EC50: > 195 µM (not active)
[13]
  CC50: 9.42 µM (active)
[3]
  AC50: 5.02 µM (active)
Streptococcus
  EC50: 21.7 µM (active)
[14]
  EC50: 6.29 µM (active)

## Cc1c(CC(=O)N2CCN(C(=O)C3COc4ccccc4O3)CC2)c(=O)oc2c(O)c(O)ccc12 (stereo not drawn)
Albumin
  IC50: > 94.1 µM (inactive)
Large T antigen
  IC50: 2.43 µM (active)
[15]
  AC50: 3.53 µM (active)
